# Assay results from article PMC4052943 (BioMed Research International, 2014).
# Like-named read-outs stand apart in the source and are kept apart here.
# Columns and labels:
# [1] = tested on: Salmonella typhimurium TA100; conditions: 250 µM;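 further: compound and mutagen preincubated together 30 min at 37°C before bacteria added, then plates incubated 48 h at 37°C, inhibition relative to mutagen-alone revertants after subtracting the negative control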
# Experimental: (§1) In the preincubation experiment, test compounds and mutagen, each having a volume of 0.1 mL of varying concentrations, were preincubated at 37°C for 30 min and then 0.1 mL of 1 × 10^7 CFU/mL density of the bacterial culture was added, followed by the addition of 2.5 mL of top agar at 45°C (containing 0.5% NaCl and 0.6% agar) supplemented with 0.5 mM histidine-biotin. […] The combined solutions were vortexed and poured onto minimal glucose plates (40% glucose solution and Vogel Bonner medium). The plates were incubated at 37°C for 48 h and the numbers of histidine-independent revertants colonies were scored.
# (§2) Survival of the bacteria was routinely monitored for each experiment. Parallel controls were run with compounds alone at all concentrations to test the possible toxicity. The concentrations of the test samples for investigating the antimutagenicity were 50, 100, 200, and 500 μM. […] All the test samples and mutagens were dissolved in DMSO (final conc., 0.01%). […] Plates were set up in triplicate for each concentration and the entire experiment was repeated three times. Inhibition of mutagenicity was expressed as percentage decrease of reverse mutation and calculated as (1) Percent inhibition=[(a−b)/(a−c)]×100, where a = number of histidine revertants induced by mutagen, b = number of histidine revertants induced by mutagen in the presence of test compound, and c = number of revertants induced in negative control.
# [2] = tested on: Salmonella typhimurium TA97a; conditions: 250 µM;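 further: compound and mutagen preincubated together 30 min at 37 °C before adding bacteria, then plated on minimal glucose agar for 48 h and His+ revertant colonies counted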
# Experimental: as §1, §2
# [3] = tested on: Salmonella typhimurium strains TA97a, TA98, TA100, and TA102
# Experimental: as §1, §2
# [4] = tested on: Salmonella typhimurium TA98; assay: Ames antimutagenicity assay (preincubation); conditions: for inhibition at 50 µM / inhibition at 100 µM / inhibition at 250 µM / inhibition at 500 µM: Salmonella enterica, TYPHIMURIUM;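 on all read-outs here: test compound and mutagen preincubated 30 min at 37°C before adding bacteria, then His+ revertant colonies counted after 48 h plating, inhibition relative to mutagen-only versus negative-control revertants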
# Experimental: as §1, §2
# [5] = tested on: Salmonella typhimurium TA98; conditions: 250 µM;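 further: test compound and mutagen preincubated 30 min at 37°C before adding bacteria, then His+ revertant colonies counted after 48 h plating, inhibition relative to mutagen-only versus negative-control revertants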
# Experimental: as §1, §2
# [6] = tested on: Salmonella typhimurium TA102; conditions: 250 µM;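 further: compound and mutagen preincubated 30 min at 37 °C before adding bacteria, His+ revertant colonies counted after 48 h at 37 °C, inhibition relative to mutagen-alone minus negative-control revertants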
# Experimental: as §1, §2
# [7] = tested on: BP-induced DNA adducts (rat liver microsomes, st-DNA); assay: Microsomal BP-DNA adducts, 32P-postlabeling; type: biochemical; conditions: for BP-induced DNA adducts: BP 1 μM, rat liver microsomes, st-DNA
# Experimental: st-DNA (300 μg/mL) was preincubated with 50 mM Tris-HCl (pH 7.5), 1 mM MgCl2, 2.5 mM glucose-6-phosphate, 1 U/mL G6PDH, 0.5 mM NADP+, and α-naphthoflavone-induced rat liver microsomal proteins (1 mg/mL) in 1 mL for 10 min, in the presence of vehicle alone and PC and EA at 20 and 40 μM. […] The incubation was continued for another 30 min at 37°C and then reaction was terminated by the addition of EDTA and centrifugation (9,000 g; 10 min). DNA was isolated from the supernatant by removal of RNA and proteins by digestions with RNases A and T1 and proteinase K and a series of extractions with phenol, phenol: Sevag (chloroform : isoamyl alcohol, 24 : 1), and Sevag, followed by precipitation of the DNA with ethanol. The DNA concentration was estimated spectrophotometrically.
# DNA adducts were analyzed by ^32P-postlabeling as described earlier. Briefly, 10 μg of DNA was digested with micrococcal nuclease and spleen phosphodiesterase (MN/SPD). Before further treatment with nuclease P1 to enrich DNA adducts, an aliquot was removed for evaluation of normal nucleotide levels. DNA adducts and normal nucleotides were labelled with [γ-^32P]ATP and T4 polynucleotide kinase. Labelled adducts were separated by multidirectional polyethyleneimine (PEI)-cellulose TLC using the following solvents: D1, 1.0 M sodium phosphate, pH 6.0; D3, 4 M lithium formate/7 M urea, pH 3.5; D4, 4 M ammonium hydroxide/isopropanol (1 : 0.9); and D5, 1.7 M sodium phosphate, pH 6.0. Normal nucleotides were resolved in 180 mM sodium phosphate, pH 6.0, by one-directional PEI-cellulose TLC. DNA adducts and normal nucleotides were detected and quantified by Packard InstantImager.
compound,measurement,setting,value
"O=c1oc2c(O)c(O)cc3c(=O)oc4c(O)c(O)cc1c4c23 [Ellagic acid, ellagic acid]",inhibition,[1],67.7%
same,inhibition,[2],44.9%
same,mutagenic activity,[3],No mutagenic activity
same,inhibition at 50 µM,"[4]; read-out: % inhibition of mutagenicity, TA 98, 50 μM + 2AF, S9",19.4%
same,inhibition at 50 µM,"[4]; read-out: % inhibition of mutagenicity, TA 98, 50 μM + BP, S9",22.2%
same,inhibition at 50 µM,"[4]; read-out: % inhibition of mutagenicity, TA 98, 50 μM + MMS, no S9",22.2%
same,inhibition at 100 µM,"[4]; read-out: % inhibition of mutagenicity, TA 98, 100 μM + 2AF, S9",39.6%
same,inhibition at 100 µM,"[4]; read-out: % inhibition of mutagenicity, TA 98, 100 μM + BP, S9",48.2%
same,inhibition at 100 µM,"[4]; read-out: % inhibition of mutagenicity, TA 98, 100 μM + MMS, no S9",34%
same,inhibition at 100 µM,"[4]; read-out: % inhibition of mutagenicity, TA 98, 100 μM + NaN3, no S9",27.9%
same,inhibition at 250 µM,"[4]; read-out: % inhibition of mutagenicity, TA 98, 250 μM + BP, S9",62.3%
same,inhibition at 250 µM,"[4]; read-out: % inhibition of mutagenicity, TA 98, 250 μM + MMS, no S9",50%
same,inhibition at 250 µM,"[4]; read-out: % inhibition of mutagenicity, TA 98, 250 μM + NaN3, no S9",50%
same,inhibition at 500 µM,"[4]; read-out: % inhibition of mutagenicity, TA 98, 500 μM + 2AF, S9",80%
same,inhibition at 500 µM,"[4]; read-out: % inhibition of mutagenicity, TA 98, 500 μM + BP, S9",78.6%
same,inhibition at 500 µM,"[4]; read-out: % inhibition of mutagenicity, TA 98, 500 μM + MMS, no S9",69%
same,inhibition at 500 µM,"[4]; read-out: % inhibition of mutagenicity, TA 98, 500 μM + NaN3, no S9",64.2%
same,Number of His+ revertants colonies/plate,"[4]; TA 98, 50 μM + 2AF, S9",214.3 ± 13.9 colonies/plate
same,Number of His+ revertants colonies/plate,"[4]; TA 98, 50 μM + BP, S9",140.0 ± 12.2 colonies/plate
same,Number of His+ revertants colonies/plate,"[4]; TA 98, 50 μM + MMS, no S9",53.0 ± 1.2 colonies/plate
same,Number of His+ revertants colonies/plate,"[4]; TA 98, 100 μM + 2AF, S9",171.0 ± 9.5 colonies/plate
same,Number of His+ revertants colonies/plate,"[4]; TA 98, 100 μM + BP, S9",107.3 ± 7.9 colonies/plate
same,Number of His+ revertants colonies/plate,"[4]; TA 98, 100 μM + MMS, no S9",48.3 ± 2.0 colonies/plate
same,Number of His+ revertants colonies/plate,"[4]; TA 98, 100 μM + NaN3, no S9",48.3 ± 2.7 colonies/plate
same,Number of His+ revertants colonies/plate,"[4]; TA 98, 250 μM + BP, S9",86.3 ± 5.8 colonies/plate
same,Number of His+ revertants colonies/plate,"[4]; TA 98, 250 μM + MMS, no S9",44.0 ± 2.1 colonies/plate
same,Number of His+ revertants colonies/plate,"[4]; TA 98, 250 μM + NaN3, no S9",43.3 ± 2.6 colonies/plate
same,Number of His+ revertants colonies/plate,"[4]; TA 98, 500 μM + 2AF, S9",76.3 ± 6.1 colonies/plate
same,Number of His+ revertants colonies/plate,"[4]; TA 98, 500 μM + BP, S9",60.7 ± 10.5 colonies/plate
same,Number of His+ revertants colonies/plate,"[4]; TA 98, 500 μM + MMS, no S9",37.3 ± 2.6 colonies/plate
same,Number of His+ revertants colonies/plate,"[4]; TA 98, 500 μM + NaN3, no S9",38.0 ± 1.7 colonies/plate
same,inhibition,[5],56.3%
same,inhibition,[6],74.1%
same,BP-induced DNA adducts,[7]; 20 μM test compound,58.6 ± 2.8 DNA adducts/10^8 nucleotides
same,BP-induced DNA adducts,[7]; 40 μM test compound,50.9 ± 8.1 DNA adducts/10^8 nucleotides
same,inhibition of BP-induced DNA adducts,"[7]; 40 μM, BP with rat liver microsomes, cofactors, DNA",77%
